pIC50: −log10 of the molar value.
How the values were obtained:
[1] = tested on: Ovarian TICs, 2393A ovarian; assay: Ovarian tumor-initiating cell growth inhibition (Alamar Blue); format: cell-based; conditions: 144 h, 6 days, read-out: GI50 range 2393A ovarian
[2] = tested on: MDA-MB-231 breast cancer cells; assay: Cell growth inhibition, Sulforhodamine B assay, MDA-MB-231; format: cell-based; conditions: Homo sapiens, 120 h, 5 days culture, SRB assay, read-out: Cell Line GI50 Range MDA-MB-231
human PLK4 = molecular target: T1, human PLK4 (Homo sapiens, UniProt O00444); assay: PLK4 inhibition assay (indirect ELISA); format: biochemical; conditions: GST-PLK4 4 nM, 15 μM ATP; read-out: IC50 Ranges PLK4
T1 construct: amino terminal GST fusion of residues 1-391 of human PLK4; made in house; host or cells: E. coli
T1 sequence (O00444 1-391): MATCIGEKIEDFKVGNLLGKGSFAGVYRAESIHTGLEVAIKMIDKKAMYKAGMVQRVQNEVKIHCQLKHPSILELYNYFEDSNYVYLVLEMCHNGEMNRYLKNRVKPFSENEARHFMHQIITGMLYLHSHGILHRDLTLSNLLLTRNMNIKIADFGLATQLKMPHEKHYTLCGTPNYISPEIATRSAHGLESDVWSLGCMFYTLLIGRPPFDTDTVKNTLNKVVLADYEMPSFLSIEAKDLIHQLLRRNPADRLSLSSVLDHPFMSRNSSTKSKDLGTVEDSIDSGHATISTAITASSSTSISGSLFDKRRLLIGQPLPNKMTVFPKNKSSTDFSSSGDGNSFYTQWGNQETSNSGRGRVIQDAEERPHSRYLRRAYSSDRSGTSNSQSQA
Method in brief: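 Compounds were tested either at a single 10 μM dose or across 10-point titrations (typically 0.5 to 0.001 μM), preincubated 15 min with 4 nM GST-PLK4 (human 1-391, dephosphorylated) before 15 μM ATP was added. MBP substrate phosphorylation over 30 min, pH 7.5 HEPES/MgCl2 buffer, read by HRP/TMB ELISA (450 nm). % inhibition vs. high-activity control; IC50 by logistic fit.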

[3] = tested on: Colon tumor initiating cells (TICs), 12 colon; assay: Colon tumor-initiating cell growth inhibition (Alamar Blue); format: cell-based; conditions: 216 h, 9 days, read-out: GI50 range 12 colon
human TTK = molecular target: T2, human TTK (Homo sapiens, UniProt P33981); assay: TTK inhibition assay (indirect ELISA); format: biochemical; conditions: GST-TTK 0.68 nM, 16 μM ATP; read-out: IC50 Ranges TTK
T2 construct: amino terminal GST fusion of full length human TTK; purchased Invitrogen
T2 sequence (P33981 1-857): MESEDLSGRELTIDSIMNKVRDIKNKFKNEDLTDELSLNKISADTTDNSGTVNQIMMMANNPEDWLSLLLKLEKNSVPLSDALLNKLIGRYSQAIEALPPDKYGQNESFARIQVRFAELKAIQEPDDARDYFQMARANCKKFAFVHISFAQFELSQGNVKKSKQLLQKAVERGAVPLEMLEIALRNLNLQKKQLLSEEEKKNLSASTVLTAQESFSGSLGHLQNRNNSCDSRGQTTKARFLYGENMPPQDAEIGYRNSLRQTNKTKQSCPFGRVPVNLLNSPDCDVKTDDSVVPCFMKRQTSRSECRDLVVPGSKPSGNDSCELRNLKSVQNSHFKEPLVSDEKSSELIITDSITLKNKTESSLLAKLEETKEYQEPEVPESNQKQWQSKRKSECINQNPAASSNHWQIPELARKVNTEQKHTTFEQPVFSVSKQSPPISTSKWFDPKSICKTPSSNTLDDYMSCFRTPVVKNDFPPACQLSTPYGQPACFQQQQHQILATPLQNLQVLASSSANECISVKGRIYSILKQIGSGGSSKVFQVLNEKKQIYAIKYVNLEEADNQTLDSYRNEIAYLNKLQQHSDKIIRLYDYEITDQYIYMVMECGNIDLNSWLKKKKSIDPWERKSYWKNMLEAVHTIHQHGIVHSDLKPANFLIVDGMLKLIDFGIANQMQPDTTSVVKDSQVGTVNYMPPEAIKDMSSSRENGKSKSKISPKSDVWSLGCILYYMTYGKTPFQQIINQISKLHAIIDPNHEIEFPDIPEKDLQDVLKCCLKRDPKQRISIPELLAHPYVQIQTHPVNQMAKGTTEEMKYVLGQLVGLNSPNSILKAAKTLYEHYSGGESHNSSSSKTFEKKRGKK

HT29 colon cancer cells = assay: Cell growth inhibition, Sulforhodamine B assay, HT29; format: cell-based; conditions: Homo sapiens, HT-29, 120 h, 5 days culture, SRB assay, read-out: Cell Line GI50 Range HT29
[4] = tested on: OVCAR-3 ovarian cancer cells; assay: Cell growth inhibition, Sulforhodamine B assay, OVCAR-3; format: cell-based; conditions: Homo sapiens, 120 h, 5 days culture, SRB assay, read-out: Cell Line GI50 Range OVCAR-3
[5] = tested on: HCT116 colon cancer cells; assay: Cell growth inhibition, Sulforhodamine B assay, HCT116; format: cell-based; conditions: Homo sapiens, HCT-116, 120 h, 5 days culture, SRB assay, read-out: Cell Line GI50 Range HCT116
Aurora B = molecular target: T3, Aurora B (Homo sapiens, UniProt Q96GD4); assay: Aurora B inhibition assay (Z-Lyte); format: biochemical; conditions: 28 nM Aurora B, 128 μM ATP; read-out: IC50 Ranges Aurora B
T3 construct: purchased Invitrogen PV3970
Description: Aurora B inhibition was determined using the Z-Lyte assay kit from Invitrogen. The assay was performed using the recommended manufacturer's instructions with 128 μM ATP and 28 nM Aurora B (Invitrogen cat #PV3970). The % inhibition values were determined according to the manufacturer's directions and IC50 values were obtained using a non-linear 4 point logistic curve fit (XLfit4, IDBS)

[6] = tested on: MDA-MB-468 breast cancer cells; assay: Cell growth inhibition, Sulforhodamine B assay, MDA-MB-468; format: cell-based; conditions: Homo sapiens, 120 h, 5 days culture, SRB assay, read-out: Cell Line GI50 Range MDA-MB-468
[7] = tested on: PA-1 ovarian cancer cells; assay: Cell growth inhibition, Sulforhodamine B assay, PA-1; format: cell-based; conditions: 120 h, 5 days culture, SRB assay, read-out: Cell Line GI50 Range PA-1

T3 sequence (Q96GD4 whole entry): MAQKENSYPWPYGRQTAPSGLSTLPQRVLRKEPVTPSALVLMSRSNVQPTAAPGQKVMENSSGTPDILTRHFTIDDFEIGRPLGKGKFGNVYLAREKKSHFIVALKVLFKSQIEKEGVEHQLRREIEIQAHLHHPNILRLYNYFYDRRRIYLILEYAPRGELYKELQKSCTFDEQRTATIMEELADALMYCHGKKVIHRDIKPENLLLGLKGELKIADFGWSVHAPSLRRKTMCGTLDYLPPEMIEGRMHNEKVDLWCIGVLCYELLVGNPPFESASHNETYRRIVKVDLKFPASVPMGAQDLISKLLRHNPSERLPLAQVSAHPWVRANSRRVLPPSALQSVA

GI50 [1] | GI50 [2] | pIC50 (human PLK4) | GI50 [3] | pIC50 (human TTK) | GI50 (HT29 colon cancer cells) | GI50 [4] | GI50 [5] | pIC50 (Aurora B) | GI50 [6] | GI50 [7] | SMILES
≤ 5 µM | ≤ 5 µM | ≥ 5.30 | ≤ 5 µM | ≥ 5.30 | ≤ 5 µM | 5 to 20 µM | ≤ 5 µM | ≥ 5.30 | ≤ 5 µM | ≤ 5 µM | C[C@@H](NC(=O)c1ccc2[nH]nc(-c3ccc(OC4CCN(C)CC4)cc3)c2c1)c1ccccc1F [Example A134, (R)—N-(1-(2-fluorophenyl)ethyl)-3-(4-((1-methylpiperidin-4-yl)oxy)phenyl)-1H-indazole-5-carboxamide]
≤ 5 µM | ≤ 5 µM | ≥ 5.30 | ≤ 5 µM | ≥ 5.30 | ≤ 5 µM | ≤ 5 µM | ≤ 5 µM | ≥ 5.30 | ≤ 5 µM | ≤ 5 µM | CN1CCC(Oc2ccc(-c3n[nH]c4ccc(C(=O)NC(c5ccccc5F)C5CC5)cc34)cc2)CC1 (stereo not drawn) [Example A136, N-(cyclopropyl(2-fluorophenyl)methyl)-3-(4-((1-methylpiperidin-4-yl)oxy)phenyl)-1H-indazole-5-carboxamide]
≤ 5 µM | ≤ 5 µM | ≥ 5.30 | ≤ 5 µM | ≥ 5.30 | ≤ 5 µM | ≤ 5 µM | ≤ 5 µM | ≥ 5.30 | ≤ 5 µM | ≤ 5 µM | CN1CCC(Oc2ccc(-c3n[nH]c4ccc(C(=O)N[C@H](CCO)c5ccccc5)cc34)cc2)CC1 [Example A137, (R)—N-(3-hydroxy-1-phenylpropyl)-3-(4-((1-methylpiperidin-4-yl)oxy)phenyl)-1H-indazole-5-carboxamide]
≤ 5 µM | ≤ 5 µM | ≥ 5.30 | ≤ 5 µM | ≥ 5.30 | ≤ 5 µM | ≤ 5 µM | ≤ 5 µM | ≥ 5.30 | ≤ 5 µM | ≤ 5 µM | CN1CCC(Oc2ccc(-c3n[nH]c4ccc(NC(=O)C(c5ccccc5)C5CC5)cc34)cc2)CC1 (stereo not drawn) [Example A138, 2-cyclopropyl-N-(3-(4-((1-methylpiperidin-4-yl)oxy)phenyl)-1H-indazol-5-yl)-2-phenylacetamide]
≤ 5 µM | ≤ 5 µM | ≥ 5.30 | ≤ 5 µM | ≥ 5.30 | ≤ 5 µM | ≤ 5 µM | ≤ 5 µM | ≥ 5.30 | ≤ 5 µM | ≤ 5 µM | CC(C)C(NC(=O)c1ccc2[nH]nc(-c3ccc(OC4CCN(C)CC4)cc3)c2c1)c1ccccc1Cl (stereo not drawn) [Example A144, N-(1-(2-chlorophenyl)-2-methylpropyl)-3-(4-((1-methylpiperidin-4-yl)oxy)phenyl)-1H-indazole-5-carboxamide]
≤ 5 µM | ≤ 5 µM | ≥ 5.30 | ≤ 5 µM | ≥ 5.30 | ≤ 5 µM | ≤ 5 µM | ≤ 5 µM | ≥ 5.30 | ≤ 5 µM | ≤ 5 µM | CN1CCC(Oc2ccc(-c3n[nH]c4ccc(C(=O)NC(c5cccs5)C5CC5)cc34)cc2)CC1 (stereo not drawn) [Example A147]
≤ 5 µM | ≤ 5 µM | ≥ 5.30 | ≤ 5 µM | ≥ 5.30 | ≤ 5 µM | ≤ 5 µM | ≤ 5 µM | ≥ 5.30 | ≤ 5 µM | ≤ 5 µM | CN1CCC(Oc2ccc(-c3n[nH]c4ccc(C(=O)NC(c5ccccc5Cl)C5CC5)cc34)cc2)CC1 (stereo not drawn) [Example A150, N-((2-chlorophenyl)(cyclopropyl)methyl)-3-(4-((1-methylpiperidin-4-yl)oxy)phenyl)-1H-indazole-5-carboxamide]
≤ 5 µM | ≤ 5 µM | ≥ 5.30 | ≤ 5 µM | ≥ 5.30 | ≤ 5 µM | ≤ 5 µM | ≤ 5 µM | ≥ 5.30 | ≤ 5 µM | ≤ 5 µM | COc1ccccc1C(NC(=O)c1ccc2[nH]nc(-c3ccc(OC4CCN(C)CC4)cc3)c2c1)C1CC1 (stereo not drawn) [Example A151, N-(cyclopropyl(2-methoxyphenyl)methyl)-3-(4-((1-methylpiperidin-4-yl)oxy)phenyl)-1H-indazole-5-carboxamide]
≤ 5 µM | ≤ 5 µM | ≥ 5.30 | ≤ 5 µM | ≥ 5.30 | ≤ 5 µM | ≤ 5 µM | ≤ 5 µM | ≥ 5.30 | ≤ 5 µM | ≤ 5 µM | COCCN1CCC(Oc2ccc(-c3n[nH]c4ccc(C(=O)N[C@H](c5ccsc5)C5CC5)cc34)cc2)CC1 [Example A154]
≤ 5 µM | ≤ 5 µM | ≥ 5.30 | ≤ 5 µM | ≥ 5.30 | ≤ 5 µM | ≤ 5 µM | ≤ 5 µM | ≥ 5.30 | ≤ 5 µM | ≤ 5 µM | O=C(NC(c1ccccc1)C1CC1)c1ccc2[nH]nc(-c3ccc(OC4CCN(C5COC5)CC4)cc3)c2c1 (stereo not drawn) [Example A157]
≤ 5 µM | ≤ 5 µM | ≥ 5.30 | ≤ 5 µM | ≥ 5.30 | ≤ 5 µM | ≤ 5 µM | ≤ 5 µM | ≥ 5.30 | ≤ 5 µM | ≤ 5 µM | COCCN1CCC(Oc2ccc(-c3n[nH]c4ccc(C(=O)N[C@H](c5cccs5)C5CC5)cc34)cc2)CC1 [Example A163, (S)—N-(cyclopropyl(thiophen-2-yl)methyl)-3-(4-((1-(2-methoxyethyl)piperidin-4-yl)oxy)phenyl)-1H-indazole-5-carboxamide]
≤ 5 µM | ≤ 5 µM | ≥ 5.30 | ≤ 5 µM | ≥ 5.30 | ≤ 5 µM | ≤ 5 µM | ≤ 5 µM | ≥ 5.30 | ≤ 5 µM | ≤ 5 µM | CN1CCC(Oc2ccc(-c3n[nH]c4ccc(C(=O)N[C@@H](c5sccc5Cl)C5CC5)cc34)cc2)CC1 [Example A166, (R)—N-((3-chlorothiophen-2-yl)(cyclopropyl)methyl)-3-(4-((1-methylpiperidin-4-yl)oxy)phenyl)-1H-indazole-5-carboxamide]

— patent US20140051679A1, “KINASE INHIBITORS AND METHOD OF TREATING CANCER WITH SAME” (UNIVERISTY HEALTH NETWORKS, priority 2011, published 2014)
